Reference: US12544360B2, “Pharmaceutical composition for preventing or treating coronavirus disease-19” (priority 2020, dated 2026)

Key:
SARS-CoV-2 [1] = test: microbe, parasite or virus in culture; format: cell-based; details: for IC50: Severe acute respiratory syndrome coronavirus 2, in Primates, Vero cells (monkey kidney cells) infected with SARS-CoV-2
SARS-CoV-2 [2] = test: microbe, parasite or virus in culture; format: cell-based; details: for antiviral activity: human lung cells (Calu-3)
[3] = Severe acute respiratory syndrome coronavirus 2, Calu-3 cells (human lung cells) infected with SARS-CoV-2

| Compound | IC50 (SARS-CoV-2 [1]) [µM] | IC50 (SARS-CoV-2 [2]; [3]) [µM] | antiviral activity (SARS-CoV-2 [2]) | other results |
| --- | --- | --- | --- | --- |
| Cc1cccc(C)c1OCC(=O)N[C@@H](Cc1ccccc1)[C@@H](O)C[C@H](Cc1ccccc1)NC(=O)[C@H](C(C)C)N1CCCNC1=O [lopinavir] | 11 | – | – | – |
| CCN1CCN(c2cc(-c3ccc(F)cc3)c3c(n2)CCCCCC3)CC1 [Blonanserin] | – | > 50 | – | – |
| Cc1cc(O)c2c(=O)c3c(O)cc(O)c4c5c(O)cc(O)c6c(=O)c7c(O)cc(C)c8c1c2c(c34)c(c78)c65 [Hypericin] | – | – | – | IC50 (SARS-CoV-2 [2]; Severe acute respiratory syndrome coronavirus 2, Calu-3): > 50 µM |
| Cc1cc(O)c2c(c1)C(=O)c1cc(O)cc(O)c1C2=O [Emodin] | – | – | exhibited antiviral activity | antiviral activity (SARS-CoV-2 [1]; Vero cells): significant antiviral activities |
| COc1ncc(-c2ccc3nccc(-c4ccnnc4)c3c2)cc1NS(=O)(=O)c1ccc(F)cc1F [Omipalisib] | 0.49 | 0.01 | exhibited antiviral activity | – |
| CCN(CC)CCCC(C)Nc1ccnc2cc(Cl)ccc12 (stereo not drawn) [chloroquine] | 8.89 | – | – | – |
